In PMC11442134, “The phytopathogen Xanthomonas campestris senses and effluxes salicylic acid via a sensor HepR and an RND family efflux pump to promote virulence in host plants” (mLife, 2024):

Key:
HepR = biological target: T1, HepR (Xanthomonas campestris, UniProt Q8P3A9); experiment: ITC with purified His-HepR (Kd […]); confirmed by SPR (Kd […]); SA inhibits HepR–Phep binding in EMSA
T1 construct: gene slyA; 147-amino acid protein, His-tagged HepR (pET28a), dimer

[1] = biological target: HepR (MarR family transcription factor, Xcc4167) (Xanthomonas campestris pv. campestris (strain XC1)); experiment: SEC; FPLC gel filtration of Ni-NTA purified His-tagged HepR on Superdex 75; 25 mM HEPES, 150 mM NaCl, pH 7.4

Q: `O=C(O)c1ccccc1O` [SA, Salicylic acid] was tested. Which Kd (HepR) did it give?
A: The Kd was 19.3 µM.

Q: “HepR (MarR family transcription factor, Xcc4167) (natural protein)” was tested. Which stoichiometry N [1] did it give?
A: Its stoichiometry N is 2.
